Source: patent publication US7792665B2, “Method for designing a compound based on the three dimensional structure of phosphoinositide dependent protein kinase 1 (PDK1)” (Medical Research Council, priority 2002, dated 2010)
Residue numbers refer to the chain shown, from its start. “Also recorded” adds a separate entry of the source. Where a SMILES comes first, the peptide text is derived from it. [ ]: non-standard residue; d: D form. pT = C[C@@H](OP(=O)(O)O)[C@H](N)C(=O)O

Assays:
PDK1[K76A] = biological target: T1, PDK1[K76A] (Homo sapiens, UniProt O15530, K76A); assay: PDK1 catalytic activity towards T308tide, activation by peptides, PDK1[K76A]; type: biochemical; conditions: T308tide substrate
T1 construct: made in house; host or cells: human embryonic kidney 293 cells (pEBG2T vector)
T1 sequence (O15530 1-556 K76A): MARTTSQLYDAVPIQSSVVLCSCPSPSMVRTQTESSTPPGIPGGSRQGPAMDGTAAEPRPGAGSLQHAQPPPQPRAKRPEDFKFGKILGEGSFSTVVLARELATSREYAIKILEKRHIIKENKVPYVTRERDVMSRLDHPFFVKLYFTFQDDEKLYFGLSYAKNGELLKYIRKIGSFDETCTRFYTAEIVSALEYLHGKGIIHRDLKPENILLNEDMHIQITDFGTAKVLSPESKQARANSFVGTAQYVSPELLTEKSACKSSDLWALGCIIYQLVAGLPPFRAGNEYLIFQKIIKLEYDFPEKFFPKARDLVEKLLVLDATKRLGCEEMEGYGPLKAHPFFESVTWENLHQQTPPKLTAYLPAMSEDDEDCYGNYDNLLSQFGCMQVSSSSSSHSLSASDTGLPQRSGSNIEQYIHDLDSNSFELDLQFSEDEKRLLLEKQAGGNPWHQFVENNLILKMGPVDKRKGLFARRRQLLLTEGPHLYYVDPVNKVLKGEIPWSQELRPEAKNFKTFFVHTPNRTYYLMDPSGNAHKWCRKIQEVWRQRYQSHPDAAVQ
Experimental: C. Activation of the indicated forms of PDK1 by 56K-pHM and S6K-HM. PDK1 activity was measured using the peptide substrate (T308tide) in the presence of the indicated concentrations of 56K-pHM (closed circles) and S6K-HM (open circles) as described in the methods. Assays were performed in triplicate and similar results obtained in 2 separate experiments. The results are the average—SD for a single experiment.
The ability of wild type and mutant PDK1 to phosphorylate the synthetic peptide T308tide ([…] ([Biondi et al., 2000]) (SEQ ID NO:108) was carried out in 30 μl assays containing 100 ng of wild type or mutant PDK1, 50 mM Tris/HCl pH 7.5, 0.1% 13-mercaptoethanol, 10 mM MgCl2, 100 μM [32γ P]ATP (200 cpm/pmol), 0.5 μM microcystin-LR, 1 mM T308tide in the presence or absence of the indicated concentrations of the 56K-pHM peptide ([…](P)YVAPSV) (SEQ ID NO:104) or 56K-HM. peptide ([…]) (SEQ ID NO:105). After incubation for 10 min at 30° C., 25 μl of the resultant mixture was spotted into P81 phosphocellulose paper (2×2 cm) and the papers washed and analysed as described previously for assays of MAP kinase. Control assays were carried out in parallel in which either PDK1, or peptide substrate were omitted; these values were always less than 5% of the activity measured in the presence of these reagents. […]

PDK1[R131A] = biological target: T2, PDK1[R131A] (Homo sapiens, UniProt O15530, R131A); assay: Surface plasmon resonance (BiaCore) binding, PDK1[R131A]
T2 construct: GST (N); made in house; host or cells: human embryonic kidney 293 cells (pEBG2T vector)
T2 sequence (O15530 1-556 R131A): T1 sequence (O15530 1-556 K76A) with A76K, R131A
Experimental: Binding and activation of wild type and mutant forms of PDK1 to a phosphopeptide derived from the hydrophobic motif of S6K1. The binding of the wild type (wt) PDK1 and indicated mutants to a phosphopeptide comprising the hydrophobic motif of S6K1 (S6K-pHM: […]*YVAPSV, where T* indicates phospho-threonine, SEQ ID NO:104) was analysed by surface plasmon resonance as described in the Materials and Methods.
A. The sensor chip SA was coated with 12RUs of the biotinylated S6K-pHM peptide and the binding was analysed following injection of 270 nM wild type PDK1, PDK1 [T148A] and PDK1 [K76A]. […] (data not shown).
Binding was analysed in a BiaCore 3000 system (BiaCore AB, Stevenage, UK). Biotinylated S6K-pHM (Biotin-C12-[…](P)YVAPSV) (SEQ ID NO:104) or the non-phosphorylated form of this peptide S6K-HM was bound to an streptavidin-coated Sensor chip (SA) (12 response units, RU). 30 μl of wild type or the indicated mutant GST-PDK1 were injected at a flow rate of 30 μl/min, in buffer HBS-P (10 mM HEPES pH 7.4, 0.15M NaCl, 0.005% (by vol) polysorbate-20) supplemented with 1 mM DTT. Specific interactions between 56K-pHM and PDK1 proteins were obtained between the concentration range of 2-2150 nM PDK1. Steady state binding was determined at each concentration. Dissociation of PDK1 from the phospho-peptide was monitored over a 1 min period. […]

CC(C)C[C@H](NC(=O)[C@H](Cc1ccccc1)NC(=O)[C@@H](NC(=O)[C@H](CCC(N)=O)NC(=O)[C@H](CC(N)=O)NC(=O)[C@H](C)NC(=O)[C@H](CO)NC(=O)[C@H](CCC(=O)O)NC(=O)[C@@H](N)CO)C(C)C)C(=O)NCC(=O)N[C@@H](Cc1ccccc1)C(=O)N[C@H](C(=O)N[C@@H](Cc1ccc(O)cc1)C(=O)N[C@H](C(=O)N[C@@H](C)C(=O)N1CCC[C@H]1C(=O)N[C@@H](CO)C(=O)N[C@H](C(=O)O)C(C)C)C(C)C)[C@@H](C)OP(=O)(O)O [S6K-pHM] (H-SESANQVFLGF[pT]YVAPSV-OH; N-terminus and C-terminus assumed)
higher concentration required to half maximally activate PDK1[K76A] than wild type (PDK1[K76A]): approximately 3 fold
binding of PDK1[R131A] to peptide (PDK1[R131A]): No detectable binding; also recorded: did not detectably interact
